From patent US12617758B2, “Quinazoline derivative having FLT3 inhibitory activity, and use thereof” (INDUSTRY-UNIVERSITY COOPERATION FOUNDATION HANYANG …, priority 2020, dated 2026)

How the values were obtained:
Assay in all cases: Kinase panel screening
Assay type in all cases: biochemical
Settings in all cases: single dose of 10 μM, read-out: % inhibition rate
[1] = target: AXL (R499C) (Homo sapiens, UniProt P30530, R499C)
[2] = target: AKT1 (Homo sapiens, UniProt P31749)
[3] = target: FGFR3 (Homo sapiens, UniProt P22607)
Chain of FGFR3 (P22607 23-806, species assumed): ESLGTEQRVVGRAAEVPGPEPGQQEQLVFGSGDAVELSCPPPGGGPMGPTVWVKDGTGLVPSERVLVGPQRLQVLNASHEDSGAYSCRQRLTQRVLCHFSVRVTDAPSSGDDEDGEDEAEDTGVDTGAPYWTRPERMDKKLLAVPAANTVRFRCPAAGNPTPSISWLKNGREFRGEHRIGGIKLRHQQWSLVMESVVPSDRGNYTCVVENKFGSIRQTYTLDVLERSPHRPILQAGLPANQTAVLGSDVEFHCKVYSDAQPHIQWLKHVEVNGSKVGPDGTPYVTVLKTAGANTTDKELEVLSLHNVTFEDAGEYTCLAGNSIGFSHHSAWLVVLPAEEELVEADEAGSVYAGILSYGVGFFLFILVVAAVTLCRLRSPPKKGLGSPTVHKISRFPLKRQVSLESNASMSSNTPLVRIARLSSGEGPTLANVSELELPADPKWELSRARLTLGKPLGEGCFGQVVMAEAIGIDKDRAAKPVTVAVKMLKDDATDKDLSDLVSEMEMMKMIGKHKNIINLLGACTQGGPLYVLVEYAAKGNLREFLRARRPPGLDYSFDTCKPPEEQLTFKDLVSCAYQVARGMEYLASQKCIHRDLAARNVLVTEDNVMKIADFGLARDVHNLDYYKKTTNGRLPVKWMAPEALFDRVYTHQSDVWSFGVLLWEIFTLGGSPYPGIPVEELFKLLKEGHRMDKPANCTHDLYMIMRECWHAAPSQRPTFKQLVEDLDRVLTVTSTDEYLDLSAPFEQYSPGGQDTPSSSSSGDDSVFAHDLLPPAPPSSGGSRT

[4] = target: KDR/VEGFR2 (Homo sapiens, UniProt P35968)
[5] = target: EGFR (Homo sapiens, UniProt P00533)
Chain of EGFR (P00533 25-1210, species assumed): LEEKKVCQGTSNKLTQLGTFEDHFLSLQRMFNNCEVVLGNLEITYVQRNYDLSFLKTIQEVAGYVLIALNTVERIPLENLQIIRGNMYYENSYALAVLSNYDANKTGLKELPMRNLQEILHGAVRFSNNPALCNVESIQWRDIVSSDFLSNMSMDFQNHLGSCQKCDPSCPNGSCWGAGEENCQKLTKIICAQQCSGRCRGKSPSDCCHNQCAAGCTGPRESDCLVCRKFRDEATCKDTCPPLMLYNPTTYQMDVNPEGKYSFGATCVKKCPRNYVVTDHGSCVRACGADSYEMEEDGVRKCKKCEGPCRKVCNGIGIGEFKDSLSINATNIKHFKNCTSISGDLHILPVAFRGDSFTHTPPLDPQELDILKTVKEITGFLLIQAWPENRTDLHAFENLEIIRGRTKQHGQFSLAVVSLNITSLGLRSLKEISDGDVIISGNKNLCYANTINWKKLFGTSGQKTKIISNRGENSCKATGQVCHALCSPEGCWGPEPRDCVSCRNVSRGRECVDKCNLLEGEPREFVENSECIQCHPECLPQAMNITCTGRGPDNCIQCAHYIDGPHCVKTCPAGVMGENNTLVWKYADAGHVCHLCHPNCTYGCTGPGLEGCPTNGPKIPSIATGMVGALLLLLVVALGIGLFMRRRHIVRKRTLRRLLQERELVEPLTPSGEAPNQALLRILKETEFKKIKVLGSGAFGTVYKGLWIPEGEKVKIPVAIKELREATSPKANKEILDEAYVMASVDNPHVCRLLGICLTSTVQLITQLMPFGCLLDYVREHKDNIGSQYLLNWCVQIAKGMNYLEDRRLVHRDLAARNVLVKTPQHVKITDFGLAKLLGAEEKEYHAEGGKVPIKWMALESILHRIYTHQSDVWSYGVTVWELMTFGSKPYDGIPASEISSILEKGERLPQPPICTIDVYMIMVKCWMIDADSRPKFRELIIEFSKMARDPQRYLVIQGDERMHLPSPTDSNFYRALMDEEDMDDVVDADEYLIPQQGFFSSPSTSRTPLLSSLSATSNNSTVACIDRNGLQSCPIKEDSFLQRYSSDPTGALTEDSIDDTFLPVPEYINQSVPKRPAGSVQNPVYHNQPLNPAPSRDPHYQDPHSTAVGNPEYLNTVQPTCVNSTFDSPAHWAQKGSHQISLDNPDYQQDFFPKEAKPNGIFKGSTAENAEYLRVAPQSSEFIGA

[6] = target: ABL1 (Homo sapiens, UniProt P00519)
Chain of ABL1 (P00519 whole entry, species assumed): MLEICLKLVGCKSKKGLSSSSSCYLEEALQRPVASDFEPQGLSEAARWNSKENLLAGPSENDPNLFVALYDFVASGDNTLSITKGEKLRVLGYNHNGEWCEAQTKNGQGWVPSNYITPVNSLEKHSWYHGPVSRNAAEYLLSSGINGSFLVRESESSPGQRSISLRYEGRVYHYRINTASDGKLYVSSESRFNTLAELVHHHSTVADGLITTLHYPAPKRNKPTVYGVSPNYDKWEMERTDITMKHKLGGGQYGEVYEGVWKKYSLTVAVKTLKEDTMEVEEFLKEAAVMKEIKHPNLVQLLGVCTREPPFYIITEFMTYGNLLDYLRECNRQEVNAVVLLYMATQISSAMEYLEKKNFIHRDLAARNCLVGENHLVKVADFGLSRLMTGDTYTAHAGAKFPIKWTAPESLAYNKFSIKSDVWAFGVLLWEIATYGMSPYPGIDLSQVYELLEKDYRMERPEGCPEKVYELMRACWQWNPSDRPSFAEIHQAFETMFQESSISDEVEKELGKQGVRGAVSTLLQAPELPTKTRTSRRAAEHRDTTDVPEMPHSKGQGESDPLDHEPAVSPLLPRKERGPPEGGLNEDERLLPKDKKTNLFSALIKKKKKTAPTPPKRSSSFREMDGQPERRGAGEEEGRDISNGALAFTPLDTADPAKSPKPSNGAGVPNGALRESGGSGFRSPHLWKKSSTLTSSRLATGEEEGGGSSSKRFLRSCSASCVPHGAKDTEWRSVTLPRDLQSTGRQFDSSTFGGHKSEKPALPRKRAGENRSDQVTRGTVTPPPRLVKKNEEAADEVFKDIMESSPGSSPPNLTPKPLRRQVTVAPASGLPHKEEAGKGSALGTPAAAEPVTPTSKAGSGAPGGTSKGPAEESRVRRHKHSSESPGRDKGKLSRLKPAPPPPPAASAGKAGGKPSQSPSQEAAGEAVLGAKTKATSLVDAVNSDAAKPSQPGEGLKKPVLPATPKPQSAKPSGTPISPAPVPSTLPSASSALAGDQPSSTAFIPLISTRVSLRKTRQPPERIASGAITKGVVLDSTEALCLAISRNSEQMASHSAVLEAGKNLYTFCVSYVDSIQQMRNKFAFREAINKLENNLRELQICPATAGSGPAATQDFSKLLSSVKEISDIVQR

[7] = target: RIPK3 (Homo sapiens, UniProt Q9Y572)
Chain of RIPK3 (Q9Y572 whole entry, species assumed): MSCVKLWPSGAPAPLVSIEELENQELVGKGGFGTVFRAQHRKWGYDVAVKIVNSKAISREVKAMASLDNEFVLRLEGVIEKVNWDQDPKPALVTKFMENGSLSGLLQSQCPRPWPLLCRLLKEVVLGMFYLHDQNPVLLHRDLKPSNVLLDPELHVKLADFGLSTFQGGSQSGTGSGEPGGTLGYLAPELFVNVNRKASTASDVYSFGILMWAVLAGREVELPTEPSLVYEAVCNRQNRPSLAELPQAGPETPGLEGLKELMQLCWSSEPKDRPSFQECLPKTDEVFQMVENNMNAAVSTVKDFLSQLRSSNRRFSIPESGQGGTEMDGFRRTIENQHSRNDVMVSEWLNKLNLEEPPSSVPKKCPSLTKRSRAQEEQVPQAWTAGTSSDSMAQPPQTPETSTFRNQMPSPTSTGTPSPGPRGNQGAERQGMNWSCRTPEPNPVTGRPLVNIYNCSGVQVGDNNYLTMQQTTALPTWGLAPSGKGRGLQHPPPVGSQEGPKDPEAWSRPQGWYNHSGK
Method: Next, kinase panel screening for Compound 7d was investigated for 36 different kinases at a single dose of 10 μM (FIG. 1 and Table 3).

[8] = target: BRAF (V599E) (Homo sapiens, UniProt P15056, V600E)
Chain of BRAF (V599E) (P15056 416-766 V600E limits assumed, species assumed): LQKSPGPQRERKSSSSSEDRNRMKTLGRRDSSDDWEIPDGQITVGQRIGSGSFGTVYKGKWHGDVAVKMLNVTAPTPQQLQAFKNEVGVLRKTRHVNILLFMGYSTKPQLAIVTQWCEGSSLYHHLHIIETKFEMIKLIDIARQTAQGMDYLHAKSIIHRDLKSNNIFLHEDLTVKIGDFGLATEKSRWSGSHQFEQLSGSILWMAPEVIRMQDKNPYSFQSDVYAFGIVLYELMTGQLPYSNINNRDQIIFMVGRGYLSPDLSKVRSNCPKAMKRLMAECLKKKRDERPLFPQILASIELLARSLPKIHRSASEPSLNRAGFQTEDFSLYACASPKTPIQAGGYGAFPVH

[9] = target: ALK (Homo sapiens, UniProt Q9UM73)

Chain of AXL (R499C) (P30530 26-894 R499C, species assumed): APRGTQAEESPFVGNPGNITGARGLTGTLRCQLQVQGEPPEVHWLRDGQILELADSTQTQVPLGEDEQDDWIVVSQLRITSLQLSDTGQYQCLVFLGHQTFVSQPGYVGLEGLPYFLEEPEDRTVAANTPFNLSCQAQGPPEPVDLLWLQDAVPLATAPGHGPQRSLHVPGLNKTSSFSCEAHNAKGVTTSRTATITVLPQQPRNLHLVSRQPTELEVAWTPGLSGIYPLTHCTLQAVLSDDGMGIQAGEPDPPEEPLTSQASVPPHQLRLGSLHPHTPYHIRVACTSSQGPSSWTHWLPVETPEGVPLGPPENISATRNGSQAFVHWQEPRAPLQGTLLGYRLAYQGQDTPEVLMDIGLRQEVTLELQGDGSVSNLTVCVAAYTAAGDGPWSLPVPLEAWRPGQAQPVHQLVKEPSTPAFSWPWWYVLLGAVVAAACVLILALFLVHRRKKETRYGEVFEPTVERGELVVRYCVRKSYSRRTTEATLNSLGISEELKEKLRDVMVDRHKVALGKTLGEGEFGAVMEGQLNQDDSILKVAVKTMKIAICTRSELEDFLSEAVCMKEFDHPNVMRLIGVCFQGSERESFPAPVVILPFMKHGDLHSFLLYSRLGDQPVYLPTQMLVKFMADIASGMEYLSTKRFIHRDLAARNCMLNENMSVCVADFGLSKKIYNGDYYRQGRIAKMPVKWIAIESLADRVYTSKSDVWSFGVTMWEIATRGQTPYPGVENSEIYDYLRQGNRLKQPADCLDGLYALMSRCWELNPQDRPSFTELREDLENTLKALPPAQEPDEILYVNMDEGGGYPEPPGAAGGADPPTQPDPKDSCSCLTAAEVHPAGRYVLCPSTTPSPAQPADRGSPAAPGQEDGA

## Cc1oncc1C(=O)Nc1ccc2cnc(-c3cc(N4CCN(C)CC4)cc(C(F)(F)F)c3)nc2c1 [Compound 7d, 5-methyl-N-(2-(3-(4-methylpiperazin-1-yl)-5-(trifluoromethyl)phenyl)quinazolin-7-yl)isoxazole-4-carboxamide]
[1]
  inhibition at 10 µM: 10.1%
[2]
  inhibition at 10 µM: 5.48%
[3]
  inhibition at 10 µM: 1%
[4]
  inhibition at 10 µM: 16.8%
[5]
  inhibition at 10 µM: 0%
[6]
  inhibition at 10 µM: 6.46%
[7]
  inhibition at 10 µM: 12.8%
[8]
  inhibition at 10 µM: 5.19%
[9]
  inhibition at 10 µM: 17%
